What was measured:
Assay in all cases: biochemical
[1] = biological target: T1, RSK3 (Homo sapiens, UniProt Q15349); settings: read-out: % Inhibition (at 10mM)
T1 construct: gene RPS6KA2

[2] = biological target: mTOR (Homo sapiens, UniProt P42345)
[3] = biological target: T2, CK1_delta (Homo sapiens, UniProt P48730); settings: read-out: % Inhibition (at 10mM)
T2 construct: gene CSNK1D

[4] = biological target: T3, p38_alpha(direct) (Homo sapiens, UniProt Q16539); settings: read-out: % Inhibition (at 10mM)
T3 construct: gene MAPK14; direct

[5] = biological target: T4, PCTK2 (Homo sapiens, UniProt Q00537); settings: read-out: % Inhibition (at 10mM)
T4 construct: gene CDK17

[6] = biological target: MARK1 (Homo sapiens, UniProt Q9P0L2); settings: read-out: % Inhibition (at 10mM)
[7] = biological target: AKT3 (Homo sapiens, UniProt Q9Y243); settings: read-out: % Inhibition (at 10mM)
[8] = biological target: CSF1R (Homo sapiens, UniProt P07333); settings: read-out: % Inhibition (at 10mM)
[9] = biological target: Mink1 (Homo sapiens, UniProt Q8N4C8); settings: read-out: % Inhibition (at 10mM)
[10] = biological target: T5, p70S6K (Homo sapiens, UniProt P23443); settings: read-out: % Inhibition (at 10mM)
T5 construct: gene RPS6KB1

[11] = biological target: T6, DNA-PK (Homo sapiens, UniProt P78527); settings: read-out: % Inhibition (at 10mM)
T6 construct: gene PRKDC

[12] = biological target: T7, Mer (Homo sapiens, UniProt Q12866); settings: read-out: % Inhibition (at 10mM)
T7 construct: gene MERTK

[13] = biological target: T8, ZAP-70 (Homo sapiens, UniProt P43403); settings: read-out: % Inhibition (at 10mM)
T8 construct: gene ZAP70

[14] = biological target: T9, CK1_epsilon1 (Homo sapiens, UniProt P49674); settings: read-out: % Inhibition (at 10mM)
T9 construct: gene CSNK1E; epsilon 1

[15] = biological target: FGFR2 (Homo sapiens, UniProt P21802); settings: read-out: % Inhibition (at 10mM)
[16] = biological target: PIM3 (Homo sapiens, UniProt Q86V86); settings: read-out: % Inhibition (at 10mM)
[17] = biological target: T10, Aurora_A (Homo sapiens, UniProt O14965); settings: read-out: % Inhibition (at 10mM)
T10 construct: gene AURKA

[18] = biological target: T11, PRAK (Homo sapiens, UniProt Q8IW41); settings: read-out: % Inhibition (at 10mM)
T11 construct: gene MAPKAPK5

[19] = biological target: ErbB4 (Homo sapiens, UniProt Q15303); settings: read-out: % Inhibition (at 10mM)
[20] = biological target: PAK2 (Homo sapiens, UniProt Q13177); settings: read-out: % Inhibition (at 10mM)
[21] = biological target: Kit (Homo sapiens, UniProt P10721); settings: read-out: % Inhibition (at 10mM)
[22] = biological target: CDK1/cyclinB (Homo sapiens, UniProt P06493); settings: read-out: % Inhibition (at 10mM)
[23] = biological target: T12, GCK (Homo sapiens, UniProt Q12851); settings: read-out: % Inhibition (at 10mM)
T12 construct: gene MAP4K2

[24] = biological target: EphB3 (Homo sapiens, UniProt P54753); settings: read-out: % Inhibition (at 10mM)
[25] = biological target: Fgr (Homo sapiens, UniProt P09769); settings: read-out: % Inhibition (at 10mM)
[26] = biological target: T13, IKK_epsilon (Homo sapiens, UniProt Q14164); settings: read-out: % Inhibition (at 10mM)
T13 construct: gene IKBKE

[27] = biological target: HIPK4 (Homo sapiens, UniProt Q8NE63); settings: read-out: % Inhibition (at 10mM)
[28] = biological target: T14, TSSK1 (Homo sapiens, UniProt Q9BXA7); settings: read-out: % Inhibition (at 10mM)
T14 construct: gene TSSK1B

[29] = biological target: T15, PKC_beta1 (Homo sapiens, UniProt P05771); settings: read-out: % Inhibition (at 10mM)
T15 construct: gene PRKCB; isoform beta1

[30] = biological target: T16, TrkB (Homo sapiens, UniProt Q16620); settings: read-out: % Inhibition (at 10mM)
T16 construct: gene NTRK2

[31] = biological target: HIPK1 (Homo sapiens, UniProt Q86Z02); settings: read-out: % Inhibition (at 10mM)
[32] = biological target: T17, Srm (Homo sapiens, UniProt Q9H3Y6); settings: read-out: % Inhibition (at 10mM)
T17 construct: gene SRMS

[33] = biological target: TSSK2 (Homo sapiens, UniProt Q96PF2); settings: read-out: % Inhibition (at 10mM)
[34] = biological target: T18, PKD3 (Homo sapiens, UniProt O94806); settings: read-out: % Inhibition (at 10mM)
T18 construct: gene PRKD3

[35] = biological target: ALK (Homo sapiens, UniProt Q9UM73); settings: read-out: % Inhibition (at 10mM)
[36] = biological target: PRKAA2 (Homo sapiens, UniProt P54646); settings: read-out: % Inhibition (at 10mM)
[37] = biological target: GRK3 (Homo sapiens, UniProt P35626); settings: read-out: % Inhibition (at 10mM)

Fgr, sequence (P09769 whole entry): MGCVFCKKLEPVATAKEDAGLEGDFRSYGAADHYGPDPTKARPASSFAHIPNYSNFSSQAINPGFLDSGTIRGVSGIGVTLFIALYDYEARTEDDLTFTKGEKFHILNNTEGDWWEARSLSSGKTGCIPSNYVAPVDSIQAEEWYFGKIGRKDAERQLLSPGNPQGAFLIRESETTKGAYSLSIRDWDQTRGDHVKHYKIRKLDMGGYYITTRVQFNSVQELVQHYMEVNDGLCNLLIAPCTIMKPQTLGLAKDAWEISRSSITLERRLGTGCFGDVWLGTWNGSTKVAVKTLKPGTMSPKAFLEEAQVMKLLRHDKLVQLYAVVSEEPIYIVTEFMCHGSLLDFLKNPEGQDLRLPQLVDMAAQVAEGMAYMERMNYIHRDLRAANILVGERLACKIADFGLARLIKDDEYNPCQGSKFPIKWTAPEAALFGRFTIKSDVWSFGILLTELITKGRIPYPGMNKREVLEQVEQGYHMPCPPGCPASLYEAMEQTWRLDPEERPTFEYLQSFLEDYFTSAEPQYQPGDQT
EphB3, sequence (P54753 whole entry): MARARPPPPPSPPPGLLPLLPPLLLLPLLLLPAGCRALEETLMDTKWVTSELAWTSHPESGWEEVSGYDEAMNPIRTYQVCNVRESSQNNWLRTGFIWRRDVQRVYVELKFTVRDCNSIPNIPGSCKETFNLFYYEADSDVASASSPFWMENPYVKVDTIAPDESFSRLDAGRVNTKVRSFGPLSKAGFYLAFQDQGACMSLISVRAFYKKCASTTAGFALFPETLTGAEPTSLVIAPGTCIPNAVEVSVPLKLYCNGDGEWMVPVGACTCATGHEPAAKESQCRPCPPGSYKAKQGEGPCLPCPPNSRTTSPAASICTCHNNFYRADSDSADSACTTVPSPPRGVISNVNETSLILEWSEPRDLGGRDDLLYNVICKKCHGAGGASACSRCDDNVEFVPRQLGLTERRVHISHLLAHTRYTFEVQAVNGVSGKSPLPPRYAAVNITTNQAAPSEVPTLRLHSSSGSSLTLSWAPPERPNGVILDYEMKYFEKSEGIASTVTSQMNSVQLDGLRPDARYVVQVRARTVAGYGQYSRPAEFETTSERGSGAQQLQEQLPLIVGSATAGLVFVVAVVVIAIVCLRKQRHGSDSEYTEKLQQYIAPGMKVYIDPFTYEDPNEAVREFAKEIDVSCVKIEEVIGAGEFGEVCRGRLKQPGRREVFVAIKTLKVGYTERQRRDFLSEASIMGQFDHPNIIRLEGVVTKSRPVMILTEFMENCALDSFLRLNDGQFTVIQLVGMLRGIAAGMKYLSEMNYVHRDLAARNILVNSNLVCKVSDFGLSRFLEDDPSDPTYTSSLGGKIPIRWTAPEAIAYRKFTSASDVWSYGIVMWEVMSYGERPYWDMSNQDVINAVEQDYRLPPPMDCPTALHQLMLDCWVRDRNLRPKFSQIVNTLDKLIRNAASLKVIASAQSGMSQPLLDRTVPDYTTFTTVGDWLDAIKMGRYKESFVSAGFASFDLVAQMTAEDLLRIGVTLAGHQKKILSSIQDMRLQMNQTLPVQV
MARK1, sequence (Q9P0L2 whole entry): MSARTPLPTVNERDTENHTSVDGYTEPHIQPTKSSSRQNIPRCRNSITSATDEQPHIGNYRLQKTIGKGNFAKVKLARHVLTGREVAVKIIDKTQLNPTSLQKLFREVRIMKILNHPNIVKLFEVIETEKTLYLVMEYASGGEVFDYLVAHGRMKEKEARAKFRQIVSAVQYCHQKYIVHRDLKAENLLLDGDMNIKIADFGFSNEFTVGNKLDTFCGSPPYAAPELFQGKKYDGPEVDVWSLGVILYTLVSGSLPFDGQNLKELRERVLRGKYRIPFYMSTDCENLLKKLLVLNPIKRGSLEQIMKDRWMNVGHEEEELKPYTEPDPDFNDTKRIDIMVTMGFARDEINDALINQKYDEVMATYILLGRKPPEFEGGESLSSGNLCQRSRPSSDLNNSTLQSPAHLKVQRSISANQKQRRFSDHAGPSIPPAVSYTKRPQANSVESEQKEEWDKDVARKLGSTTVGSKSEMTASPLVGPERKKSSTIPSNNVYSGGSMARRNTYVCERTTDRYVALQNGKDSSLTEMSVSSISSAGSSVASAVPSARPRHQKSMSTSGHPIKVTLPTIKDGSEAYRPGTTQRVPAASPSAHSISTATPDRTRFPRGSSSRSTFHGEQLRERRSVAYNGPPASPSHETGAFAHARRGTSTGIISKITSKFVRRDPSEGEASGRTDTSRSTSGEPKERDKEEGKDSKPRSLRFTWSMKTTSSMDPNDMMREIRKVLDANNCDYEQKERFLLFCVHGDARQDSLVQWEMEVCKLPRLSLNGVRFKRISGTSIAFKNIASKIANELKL
ErbB4, sequence (Q15303 whole entry): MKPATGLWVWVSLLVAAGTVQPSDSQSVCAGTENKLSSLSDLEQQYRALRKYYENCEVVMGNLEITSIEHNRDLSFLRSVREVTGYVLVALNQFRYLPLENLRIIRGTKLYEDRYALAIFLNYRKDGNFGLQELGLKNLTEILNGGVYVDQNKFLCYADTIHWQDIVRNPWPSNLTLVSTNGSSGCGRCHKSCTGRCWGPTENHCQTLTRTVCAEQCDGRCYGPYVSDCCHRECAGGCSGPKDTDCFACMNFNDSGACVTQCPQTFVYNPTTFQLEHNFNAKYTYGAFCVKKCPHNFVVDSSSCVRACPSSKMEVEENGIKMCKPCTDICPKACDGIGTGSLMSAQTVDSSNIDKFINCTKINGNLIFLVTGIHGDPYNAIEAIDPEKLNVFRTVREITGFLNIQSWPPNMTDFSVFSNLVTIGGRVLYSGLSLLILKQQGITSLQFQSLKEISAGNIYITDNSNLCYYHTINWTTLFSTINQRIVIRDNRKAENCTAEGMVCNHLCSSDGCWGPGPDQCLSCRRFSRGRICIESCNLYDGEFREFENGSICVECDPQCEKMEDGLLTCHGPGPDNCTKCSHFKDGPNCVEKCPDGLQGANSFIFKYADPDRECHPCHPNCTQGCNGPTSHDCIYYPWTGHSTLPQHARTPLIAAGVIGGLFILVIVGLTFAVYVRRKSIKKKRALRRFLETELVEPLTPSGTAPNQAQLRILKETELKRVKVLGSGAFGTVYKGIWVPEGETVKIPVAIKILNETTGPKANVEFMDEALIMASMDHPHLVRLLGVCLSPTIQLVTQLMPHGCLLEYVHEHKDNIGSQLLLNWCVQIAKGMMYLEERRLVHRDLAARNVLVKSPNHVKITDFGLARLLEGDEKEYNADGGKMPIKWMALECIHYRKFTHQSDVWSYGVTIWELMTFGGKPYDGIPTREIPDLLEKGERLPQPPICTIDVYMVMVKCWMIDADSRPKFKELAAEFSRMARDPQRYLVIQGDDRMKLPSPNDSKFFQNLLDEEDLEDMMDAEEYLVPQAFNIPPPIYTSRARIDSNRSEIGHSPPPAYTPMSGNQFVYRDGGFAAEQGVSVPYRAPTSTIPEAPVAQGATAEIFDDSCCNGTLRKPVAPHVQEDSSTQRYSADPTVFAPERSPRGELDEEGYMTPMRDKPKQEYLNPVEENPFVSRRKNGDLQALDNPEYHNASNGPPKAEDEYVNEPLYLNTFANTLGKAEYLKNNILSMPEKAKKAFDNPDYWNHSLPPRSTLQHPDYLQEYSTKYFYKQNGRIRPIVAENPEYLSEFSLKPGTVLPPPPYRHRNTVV
T1 sequence (Q15349 whole entry): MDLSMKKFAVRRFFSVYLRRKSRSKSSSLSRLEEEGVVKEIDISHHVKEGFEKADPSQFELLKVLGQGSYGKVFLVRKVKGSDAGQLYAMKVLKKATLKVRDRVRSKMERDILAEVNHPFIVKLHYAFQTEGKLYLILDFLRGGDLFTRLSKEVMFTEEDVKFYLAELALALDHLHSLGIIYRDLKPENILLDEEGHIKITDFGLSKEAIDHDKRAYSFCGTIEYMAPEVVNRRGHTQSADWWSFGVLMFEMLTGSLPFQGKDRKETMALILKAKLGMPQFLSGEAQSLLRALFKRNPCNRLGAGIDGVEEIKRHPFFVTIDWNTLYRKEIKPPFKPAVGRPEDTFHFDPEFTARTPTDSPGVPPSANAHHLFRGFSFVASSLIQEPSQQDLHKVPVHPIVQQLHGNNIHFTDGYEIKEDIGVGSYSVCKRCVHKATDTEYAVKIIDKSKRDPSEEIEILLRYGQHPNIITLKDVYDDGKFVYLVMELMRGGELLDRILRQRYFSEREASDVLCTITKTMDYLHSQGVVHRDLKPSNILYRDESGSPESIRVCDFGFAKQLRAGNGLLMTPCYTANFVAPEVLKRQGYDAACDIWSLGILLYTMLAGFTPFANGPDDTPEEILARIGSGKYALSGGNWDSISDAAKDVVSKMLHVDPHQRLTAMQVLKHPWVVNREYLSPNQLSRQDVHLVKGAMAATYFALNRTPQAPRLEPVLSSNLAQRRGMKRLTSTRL
AKT3, sequence (Q9Y243 whole entry): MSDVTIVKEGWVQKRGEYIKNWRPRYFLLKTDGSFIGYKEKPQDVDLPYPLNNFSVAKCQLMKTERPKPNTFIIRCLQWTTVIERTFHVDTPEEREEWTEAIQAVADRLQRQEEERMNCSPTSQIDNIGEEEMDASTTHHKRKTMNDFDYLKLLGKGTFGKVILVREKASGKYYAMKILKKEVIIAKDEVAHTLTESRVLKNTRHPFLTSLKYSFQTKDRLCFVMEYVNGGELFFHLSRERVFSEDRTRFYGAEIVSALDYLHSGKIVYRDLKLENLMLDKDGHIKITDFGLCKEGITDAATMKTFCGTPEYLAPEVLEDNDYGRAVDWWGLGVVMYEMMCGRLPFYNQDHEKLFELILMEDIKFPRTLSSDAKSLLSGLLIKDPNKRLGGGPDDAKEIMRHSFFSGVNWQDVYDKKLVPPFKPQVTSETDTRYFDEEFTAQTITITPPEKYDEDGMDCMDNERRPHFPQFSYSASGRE

inhibition [1]: 2.5%
inhibition at 10 µM [2]: 9.5%
inhibition [3]: -1.5%
inhibition [4]: 4%
inhibition [5]: 0.5%
inhibition [6]: 10%
inhibition [7]: 5%
inhibition [8]: 10.5%
inhibition [9]: 7%
inhibition [10]: 7.5%
inhibition [11]: 11.5%
inhibition [12]: 49.5%
inhibition [13]: 2%
inhibition [14]: 10.5%
inhibition [15]: 2%
inhibition [16]: 1%
inhibition [17]: 17.5%
inhibition [18]: 3.5%
inhibition [19]: 98.5%
inhibition [20]: 10.5%
inhibition [21]: -1.5%
inhibition [22]: 0.5%
inhibition [23]: 6.5%
inhibition [24]: 6.5%
inhibition [25]: 65%
inhibition [26]: 5.5%
inhibition [27]: 5.5%
inhibition [28]: -6.5%
inhibition [29]: 5%
inhibition [30]: 4.5%
inhibition [31]: 4.5%
inhibition [32]: 13.5%
inhibition [33]: 10.5%
inhibition [34]: 31.5%
inhibition [35]: 8.5%
inhibition [36]: 10.5%
inhibition [37]: -5.5%
Compound: CC(C)(O)CC(=O)NCCn1ccc2ncnc(Nc3ccc(Oc4cccc(C(F)(F)F)c4)c(Cl)c3)c21 [TAK-285]
